A short description of this data set: Stability in a cosmetic preparation (clear gel), peptide content after storage. In kind it is physicochemical.

In the case of Palm-Lys-Val-Lys-OH*2MA [MA salt], under “after 3 months storage at 40° C.”, the loss of active was −19%.
On to Palm-Lys-Val-Lys-OH*2MPAA [MPAA salt], for which, for the setting “after 1 months at 40° C.”, the loss of active was found to be 52%.

The values are drawn from patent US20260209269A1, “MANDELIC ACID SALT OF PALMITOYL LYSYLVALYL-LYSINE” (DSM IP Assets B.V., priority 2022, published 2026).
